Measured values reported in paper PMC10673995, “Discovery of a novel cardiac-specific myosin modulator using artificial intelligence-based virtual screening” (Nature Communications, 2023).
“And” between values parts separate entries of the source, which are not always exact repeats. Identical values can stand only once. Like-named read-outs stand apart in the source and are kept apart here.

Legend:
[1] = system: orientation of the RLC-region of myosin in demembranated trabeculae; assay: Polarized fluorescence of BSR-cRLC-E in demembranated trabeculae (order parameter <P2>); parameters: species or system rat (Rattus norvegicus)
Text: In a subset of trabeculae, we replaced the endogenous myosin regulatory light chain (RLC) with a recombinant cardiac RLC crosslinked to a bifunctional sulforhodamine (BSR) along its E-helix (BSR-cRLC-E)[39],[40]. This allowed us to determine the orientation of the RLC-region of myosin in demembranated trabeculae using polarized fluorescence (Fig. 4b; Supplementary Table 2). […] In contrast, F10 increased <P2> for the E-helix probe, under both relaxing and activating conditions, and abolished the orientation change in the myosin heads associated with Ca^2+-activation of the myofilaments. […] As a step towards elucidating the molecular mechanism behind F10’s stabilizing effect on the myosin head OFF conformation, we measured the affinity of isolated bovine β-cardiac myosin S1 in the presence of various nucleotides and F10 for the myosin S2 tail domain using Microscale Thermophoresis (Fig. S4).
BSR-cRLCs were exchanged into demembranated trabeculae by extraction in CDTA-rigor solution (composition in mmol L^−1: 5 CDTA, 50 KCl, 40 Tris-HCl pH 8.4, 0.1% (v/v) Triton X-100) for 30 min followed by reconstitution with 40 μmol L^−1 BSR-cRLC in relaxing solution (composition in mmol L^−1: 25 Imidazole, 15 Na2Creatine phosphate (Na2CrP), 78.4 KPropionate (KPr), 5.65 Na2ATP, 6.8 MgCl2, 10 K2EGTA, 1 DTT, pH 7.1) for 1 h, replacing ~50% of the endogenous cRLC[40],[64].
Composition of experimental solutions and activation protocols were identical to those described previously for fluorescence polarization experiments. Fluorescence emission from BSR-cRLCs in trabeculae were collected by a 0.25 N.A. objective using an excitation light beam in line with the emission path. […] The fluorescence emission was separated into parallel and perpendicular components by polarizing beam splitters, and its intensity measured by two photomultipliers, allowing determination of the order parameter <P2> that describes the dipole orientations in the trabeculae. […]

[2] = system: neuropeptide receptor NPYLR7; parameters: method as in PubChem; conditions: ref PubChem; cited from earlier work
[3] = target: bovine β-cardiac myosin S1 / myosin S2 tail domain (Bos taurus, UniProt Q9BE39)
Method: In a subset of trabeculae, we replaced the endogenous myosin regulatory light chain (RLC) with a recombinant cardiac RLC crosslinked to a bifunctional sulforhodamine (BSR) along its E-helix (BSR-cRLC-E)[39],[40]. This allowed us to determine the orientation of the RLC-region of myosin in demembranated trabeculae using polarized fluorescence (Fig. 4b; Supplementary Table 2).
Microscale thermophoresis (MST) experiments were performed as described previously. Briefly, MST experiments were performed on a Monolith NT.115 instrument (NanoTemper) in interaction buffer containing 20 mmol L^−1 Mops, pH 7, 1 mmol L^−1 MgCl2, 50 mmol L^−1 KCl, 1 mmol L^−1 DTT, and 0.05% (v/v) Tween-20. […] All proteins were either gel-filtered into and/or extensively dialyzed against interaction buffer. Titration experiments were performed with a fixed concentration of 100 nmol L^−1 of Alexa647-labeled proteins in premium capillaries.

[4] = system: cardiac myofibrils; assay: Myofibrillar ATPase, cardiac (ventricle) myofibrils; type: biochemical, marmoset (Callithrix jacchus)
Text: Next we tested the myosin isoform specificity of F10 by measuring its effect on the ATPase activity of myofibrils isolated from ventricle, and fast (Tiberialis Anterior) and slow skeletal muscles (Soleus) isolated from marmoset (Callithrix jacchus).
Demembranated myofibrils were freshly prepared from bovine ventricle on the day of the experiments as previously described[25],[63]. Marmoset ventricular and skeletal muscle tissue was kindly provided by the Biological Service Unit of King’s College London. Steady-state myofibrillar ATPase activity was measured using an identical protocol as described above but in myofibril assay buffer (composition in mmol L^−1: 20 MOPS pH 7, 50 KCl, 0.1 CaCl2, 1 DTT) with a final bovine CMF concentration of 1 mg mL^−1.

bovine β-cardiac myosin S1 / myosin S2 tail domain, sequence (Q9BE39 85-778 limits assumed): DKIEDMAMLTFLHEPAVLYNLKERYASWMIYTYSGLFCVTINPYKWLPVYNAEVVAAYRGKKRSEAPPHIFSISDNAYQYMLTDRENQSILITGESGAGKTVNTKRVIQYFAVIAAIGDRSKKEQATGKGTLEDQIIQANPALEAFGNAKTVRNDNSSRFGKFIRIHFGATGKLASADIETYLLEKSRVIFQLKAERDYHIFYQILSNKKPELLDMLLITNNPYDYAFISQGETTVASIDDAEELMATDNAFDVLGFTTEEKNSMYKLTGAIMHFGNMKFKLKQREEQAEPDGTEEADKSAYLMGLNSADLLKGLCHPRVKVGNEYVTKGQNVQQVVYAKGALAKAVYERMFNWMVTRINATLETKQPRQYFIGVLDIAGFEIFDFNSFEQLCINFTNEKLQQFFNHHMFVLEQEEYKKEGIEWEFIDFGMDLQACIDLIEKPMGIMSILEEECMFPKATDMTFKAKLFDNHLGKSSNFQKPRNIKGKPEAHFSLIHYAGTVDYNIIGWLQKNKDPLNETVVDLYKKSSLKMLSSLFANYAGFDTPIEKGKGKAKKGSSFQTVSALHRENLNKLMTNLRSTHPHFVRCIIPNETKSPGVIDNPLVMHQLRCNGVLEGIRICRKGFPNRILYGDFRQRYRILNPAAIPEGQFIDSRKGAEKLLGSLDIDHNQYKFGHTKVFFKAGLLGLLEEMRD
bovine β-cardiac myosin S1 / myosin S2 tail domain, sequence (P85100 whole entry partner, the tested form may be a part): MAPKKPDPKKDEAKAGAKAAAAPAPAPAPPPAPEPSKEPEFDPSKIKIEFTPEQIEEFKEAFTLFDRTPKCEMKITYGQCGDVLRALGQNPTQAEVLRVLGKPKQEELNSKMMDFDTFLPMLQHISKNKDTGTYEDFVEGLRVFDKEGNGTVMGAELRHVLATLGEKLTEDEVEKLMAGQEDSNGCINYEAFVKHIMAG

In the case of `CCc1cc2c(=O)n(NC(=S)NC(C)C)cnc2s1` [F10], the “order parameter <P2>max” value ([1]; full Ca^2+ activation pCa 4.5, 20 μmol L^−1 F10, control 0.078 ± 0.008) is reported as 0.160 and 0.235 and 0.225, the “<P2>max” value ([1]; individual replicates) is reported as 0.160 and 0.235 and 0.225 and the “<P2>min” value ([1]; individual replicates) is reported as 0.178 and 0.208 and 0.194. For the same compound, the “biological activity in primary screen” value [2] was “without, however, any biological activity”, the “Normalized MST binding S1-S2” value ([3]; 1 mmol L-1 ADP.AlF4, S2D 0.0488) was 0.03566 and the “Normalized MST binding S1-S2” value ([3]; 1 mmol L-1 ADP.AlF4, S2D 0.0977) was 0.0163. The “Normalized MST binding S1-S2” value ([3]; 1 mmol L-1 ADP.AlF4, S2D 0.3906) was 0.009201, the “Normalized MST binding S1-S2” value ([3]; 1 mmol L-1 ADP.AlF4, S2D 0.7813) was 0.03149 and the “Normalized MST binding S1-S2” value ([3]; 1 mmol L-1 ADP.AlF4, S2D 1.5625) was 0.0885. For the same compound, the “Normalized MST binding S1-S2” value ([3]; 1 mmol L-1 ADP.AlF4, S2D 3.125) was 0.1616, the “Normalized MST binding S1-S2” value ([3]; 1 mmol L-1 ADP.AlF4, S2D 6.25) was 0.3206 and the “Normalized MST binding S1-S2” value ([3]; 1 mmol L-1 ADP.AlF4, S2D 12.5) was 0.4612. The “Normalized MST binding S1-S2” value ([3]; 1 mmol L-1 ADP.AlF4, S2D 25) was 0.6248, the “Normalized MST binding S1-S2” value ([3]; 1 mmol L-1 ADP.AlF4, S2D 50) was 0.7947 and the “Normalized MST binding S1-S2” value ([3]; 1 mmol L-1 ADP.AlF4, S2D 100) was 0.8606. For the same compound, the “Normalized MST binding S1-S2” value ([3]; 1 mmol L-1 ADP, S2D 0.0488) was 0.01363, the “Normalized MST binding S1-S2” value ([3]; 1 mmol L-1 ADP, S2D 0.0977) was 0.01186 and the “Normalized MST binding S1-S2” value ([3]; 1 mmol L-1 ADP, S2D 0.1953) was 0.01368. For the same compound, the “Normalized MST binding S1-S2” value ([3]; 1 mmol L-1 ADP, S2D 0.3906) was 0.0116, the “Normalized MST binding S1-S2” value ([3]; 1 mmol L-1 ADP, S2D 0.7813) was 0.04036 and the “Normalized MST binding S1-S2” value ([3]; 1 mmol L-1 ADP, S2D 1.5625) was 0.07905. The “Normalized MST binding S1-S2” value ([3]; 1 mmol L-1 ADP, S2D 3.125) was 0.1319, the “Normalized MST binding S1-S2” value ([3]; 1 mmol L-1 ADP, S2D 6.25) was 0.2708 and the “Normalized MST binding S1-S2” value ([3]; 1 mmol L-1 ADP, S2D 12.5) was 0.4119. For the same compound, the “Normalized MST binding S1-S2” value ([3]; 1 mmol L-1 ADP, S2D 25) was 0.5835, the “Normalized MST binding S1-S2” value ([3]; 1 mmol L-1 ADP, S2D 50) was 0.7506 and the “Normalized MST binding S1-S2” value ([3]; 1 mmol L-1 ADP, S2D 100) was 0.8408. The “Normalized MST binding S1-S2” value ([3]; 1 mmol L-1 ATP, S2D 0.0488) was 0.07487, the “Normalized MST binding S1-S2” value ([3]; 1 mmol L-1 ATP, S2D 0.0977) was 0.0005344 and the “Normalized MST binding S1-S2” value ([3]; 1 mmol L-1 ATP, S2D 0.1953) was -0.01266. The “Normalized MST binding S1-S2” value ([3]; 1 mmol L-1 ATP, S2D 0.3906) was 0.02682, the “Normalized MST binding S1-S2” value ([3]; 1 mmol L-1 ATP, S2D 0.7813) was 0.008303 and the “Normalized MST binding S1-S2” value ([3]; 1 mmol L-1 ATP, S2D 1.5625) was 0.06777. For the same compound, the “Normalized MST binding S1-S2” value ([3]; 1 mmol L-1 ATP, S2D 3.125) was 0.1347, the “Normalized MST binding S1-S2” value ([3]; 1 mmol L-1 ATP, S2D 6.25) was 0.2613 and the “Normalized MST binding S1-S2” value ([3]; 1 mmol L-1 ATP, S2D 12.5) was 0.4278. The “Normalized MST binding S1-S2” value ([3]; 1 mmol L-1 ATP, S2D 25) was 0.5839, the “Normalized MST binding S1-S2” value ([3]; 1 mmol L-1 ATP, S2D 50) was 0.7582 and the “Normalized MST binding S1-S2” value ([3]; 1 mmol L-1 ATP, S2D 100) was 0.8343. For the same compound, the “reduction of ATPase activity of fully Ca^2+-activated cardiac myofibrils” value ([4]; 20 μmol L^−1 F10) was “about 25%”, the “Myofibrilar ATPase [%], change vs control” value ([4]; Cardiac, 20 μmol L^-1 F10) was -25% and the “Myofibrilar ATPase, individual experiments” value ([4]; Cardiac, 20 μmol L^-1 F10) was 83.5308% and 67.1834% and 78.6678% and 70.8623% and 61.5039% and 74.009% and 72.9056% and 72.7421% and 68.3286% and 79.5291% and 87.482% and 81.308% and 87.6564% and 79.3198% and 89.7828% and 83.8896% and 74.0503% and 38.3012% and 88.0917% and 60.4189%.
